Columns and labels:
[1] = system: metabolism of retinoic acid in human breast cancer cells; test: Inhibition of retinoic acid (RA) metabolism (Example C.1); type: cell-based; conditions: MCF-7 human breast cancer cells, 3H-RA as substrate; concentration needed to reduce the amount of metabolites to 50% of the control
Method in brief: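 MCF-7 cells, pre-stimulated with RA the day before, incubated with ³H-RA substrate and test compound in 1% DMSO. Polar ³H-metabolites separated from unmetabolized RA and counted by scintillation. IC50 is the concentration cutting metabolite formation to 50% of control, with blank run alongside.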

Ovariectomized rats = test: Vaginal keratinization test on ovariectomized rats (Example C.2); type: in vivo; conditions: estradiol undecylate induced keratinization, per os once daily on days 1-3, active dose = 50% of rats show complete suppression
Method in brief: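 Ovariectomized rats given s.c. estradiol undecylate (100 μg per 100 g body weight in sesame oil), then oral compound once daily on days 1-3 (vehicle PEG 200). Vaginas assessed histologically one day after last dose; lowest active dose (mg/kg) is the dose giving complete keratinization suppression in 50% of rats.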

SMILES | IC50 [1] [nM] | LAD (lowest active dose) (Ovariectomized rats) [mg/kg]
CC(C)C(c1ccc(NC(=O)C2COc3ccccc3O2)cc1)n1ccnc1 (stereo not drawn) [Compound 175] | 4.83 | 10.00
CC(C)C(c1ccc(NC(=O)c2cccc3ccccc23)cc1)n1ccnc1 (stereo not drawn) [Compound 182] | 13.1 | 10.00
CCOC(=O)Nc1ccc(C(C(C)C)n2ccnc2)cc1 (stereo not drawn) [Compound 183] | 7.4 | >10.00
CC(C)C(c1ccc(NC(=O)c2cccs2)cc1)n1ccnc1 (stereo not drawn) [Compound 187] | 18.8 | >10.00
CC(C)C(c1ccc(NC(=O)C2(c3ccccc3)CC2)cc1)n1ccnc1 (stereo not drawn) [Compound 190] | > 100 | >10.00
CC(C)C(c1ccc(NC(=O)C2(c3ccccc3)CCCC2)cc1)n1ccnc1 (stereo not drawn) [Compound 191] | > 100 | >10.00
CC(C)C(c1ccc(NC(=O)c2cccn2C)cc1)n1ccnc1 (stereo not drawn) [Compound 195] | 35.1 | >10.00
CC(C)C(c1ccc(NC(=O)C2CC2)cc1)n1ccnc1 (stereo not drawn) [Compound 199] | 7.82 | >10.00
CC(C)C(c1ccc(NC(=O)C2(c3ccccc3)CCCCC2)cc1)n1ccnc1 (stereo not drawn) [Compound 200] | 44.3 | >10.00
CC/C(=C(\C)C(=O)Nc1ccc(C(C(C)C)n2ccnc2)cc1)c1ccccc1 (stereo not drawn) [Compound 203] | 22.8 | >10.00
COCC(=O)Nc1ccc(C(C(C)C)n2ccnc2)cc1 (stereo not drawn) [Compound 212] | 4.07 | 20.00
CC(C)C(c1ccc(NC(=O)c2ccc3nccnc3c2)cc1)n1ccnc1 (stereo not drawn) [Compound 214] | 3.37 | 20.00
CC(C)C(c1ccc(NC(=O)C2CCc3ccccc3O2)cc1)n1ccnc1 (stereo not drawn) [Compound 217] | 5.14 | 10.00
CC(C)C(c1ccc(NC(=O)c2cccc(F)c2)cc1)n1ccnc1 (stereo not drawn) [Compound 221] | 1.08 | 10.00
CC(C)C(c1ccc(NC(=O)CSc2ncccn2)cc1)n1ccnc1 (stereo not drawn) [Compound 224] | 4.73 | >10.00
CC(C)C(c1ccc(NC(=O)c2nccc3ccccc23)cc1)n1ccnc1 (stereo not drawn) [Compound 229] | 1.64 | >10.00
CC(C)C(c1ccc(NC(=O)C2=COc3ccccc3O2)cc1)n1ccnc1 (stereo not drawn) [Compound 234] | 3.01 | 10.00
CC(C)C(c1ccc(NC(=O)C2Oc3ccccc3O2)cc1)n1ccnc1 (stereo not drawn) [Compound 248] | 1.79 | 2.50
CC(O)C(=O)Nc1ccc(C(C(C)C)n2ccnc2)cc1 (stereo not drawn) [Compound 249] | 75.8 | 5.00
Cc1onc(-c2ccccc2)c1C(=O)Nc1ccc(C(C(C)C)n2ccnc2)cc1 (stereo not drawn) [Compound 250] | 14.9 | >10.00
CC(C)C(c1ccc(NC(=O)Cc2cccnc2)cc1)n1ccnc1 (stereo not drawn) [Compound 251] | 3.93 | 10.00
CNC(=O)Nc1ccc(C(C(C)C)n2ccnc2)cc1 (stereo not drawn) [Compound 267] | 7.75 | >10.00
CC(C)C(c1ccc(NC(=O)NCc2ccccc2)cc1)n1ccnc1 (stereo not drawn) [Compound 269] | 2.66 | >10.00
CC(C)C(c1ccc(NC(=O)NCc2ccc(Cl)cc2)cc1)n1ccnc1 (stereo not drawn) [Compound 273] | 52.7 | >10.00
CC(C)CCC(c1ccc(NC(=O)Cc2ccc(Cl)cc2)cc1)n1ccnc1 (stereo not drawn) [Compound 355] | > 100 | >10.00
O=C(Cc1ccc(Cl)cc1)Nc1ccc(C(c2ccccc2)n2ccnc2)cc1 (stereo not drawn) [Compound 357] | > 100 | >10.00
O=C(Cc1ccc(Cl)cc1)Nc1ccc(C(c2cccc(C(F)(F)F)c2)n2ccnc2)cc1 (stereo not drawn) [Compound 361] | > 100 | 10.00
O=C(Cc1ccc(Cl)cc1)Nc1ccc(C(C2CCCCC2)n2ccnc2)cc1 (stereo not drawn) [Compound 362] | 14.3 | 10.00
CCCC(c1ccc(NC(=O)Cc2ccc(Cl)cc2)cc1)n1ccnc1 (stereo not drawn) [Compound 363] | 1.42 | >10.00
CC(C)(C)C(c1ccc(NC(=O)Cc2ccc(Cl)cc2)cc1)n1ccnc1 (stereo not drawn) [Compound 365] | 1.08 | 10.00

— patent US7179825B2, “Retinoic acid mimetic anilides” (Janssen Pharmaceutica N.V., priority 1997, dated 2007)
